# Data reported in US20240408169A1 (priority 2023, published 2024).
# *1 amine or outer side, *2 acyl side, *3 side chain or, on linkers, in order; H or OH if unused. Where a SMILES comes first, the peptide text is derived from it. Bridges are numbered along the chain shown (N, C = ends). [ ]: non-standard residue; d: D form. The star is where a group is joined. X126 = CC(C)C(=O)N1[C@H]2COC[C@@H]1C=C(c1ccc(F)cc1C[C@@H](C(=O)[*:2])N(C)[*:1])C2; X205 = CC(C)C(=O)N1[C@@H]2COC[C@H]1C=C(c1ccc(F)cc1C[C@@H](C(=O)[*:2])N(C)[*:1])C2; X124 = CC(C)C(=O)N1[C@@H]2CC[C@H]1C=C(c1ccc(F)cc1C[C@@H](C(=O)[*:2])N(C)[*:1])C2; NMePhe(2-(4-MorPh),5-Cl) = CN[C@@H](Cc1cc(Cl)ccc1-c1ccc(N2CCOCC2)cc1)C(=O)O; X165 = CN([C@@H](Cc1cc(Cl)ccc1-c1ccc(N2CCOCC2)c(Cl)c1)C(=O)[*:2])[*:1]; X175 = Cc1cc(-c2ccc(Cl)cc2C[C@@H](C(=O)[*:2])N(C)[*:1])ccc1N1CCOCC1; X136 = CN1CCOc2cc(-c3ccc(Cl)cc3C[C@@H](C(=O)[*:2])N(C)[*:1])ccc21; X87 = CN([C@@H](Cc1cc(F)ccc1-c1ccc(N2CCOCC2)cc1)C(=O)[*:2])[*:1]; X190 = CC(=O)N1CC(Oc2ncc(Cl)cc2C[C@@H](C(=O)[*:2])N(C)[*:1])C1; NMehhhLys(Me) = CN([C@@H](CCCCCCCN(C)[*:3])C(=O)[*:2])[*:1]; X159 = CN([C@@H](Cc1cc(Cl)cnc1Oc1cnn(C)c1)C(=O)[*:2])[*:1]; X206 = CN([C@@H](Cc1cc(Cl)cnc1Cc1cnn(C)c1)C(=O)[*:2])[*:1]; X22 = CN([C@@H](Cc1cc(Cl)ccc1-c1cnn(C)c1)C(=O)[*:2])[*:1]; X163 = CN([C@@H](Cc1cc(Cl)ccc1N1CCOCC1)C(=O)[*:2])[*:1]; NMe(hhhLys) = CN([C@@H](CCCCCCCN[*:3])C(=O)[*:2])[*:1]; Oxane2carbonyl(2R-CF3) = O=C([C@@]1(C(F)(F)F)CCCCO1)*; cBuCO(3,3-F2-1-CF3) = O=C(C1(C(F)(F)F)CC(F)(F)C1)*; X133 = Cc1ncc(Cl)cc1C[C@@H](C(=O)[*:2])N(C)[*:1]; Pro(trans-4-F) = O=C(O)[C@@H]1C[C@@H](F)CN1; Pro(4,4-F2) = O=C(O)[C@@H]1CC(F)(F)CN1; Gly(cPr) = N[C@H](C(=O)O)C1CC1
# Legend:
# CyclinA2/CDK2 = target: T1, CyclinA2/CDK2 (Homo sapiens, UniProt P20248); assay: Fluorescence Polarization (FP) competitive binding assay, Cyclin A2/Cdk2; settings: 8 nM Cyclin A2/Cdk2, 2 nM FAM probe; average of 2-3 independent experiments; read-out: Cyclin A FP IC50;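 further: plates equilibrated two hours at room temperature before polarization reading, IC50 fitted from eight-concentration compound titration curves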
# T1 construct: purchased CRELUX Protein Services
# CyclinB1/CDK1 = target: T2, CyclinB1/CDK1 (Homo sapiens, UniProt P14635); assay: Fluorescence Polarization (FP) competitive binding assay, Cyclin B1/Cdk1; settings: 10 nM Cyclin B1/Cdk1, 2 nM FAM probe; average of 2-3 independent experiments; read-out: Cyclin B FP IC50;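 further: fluorescence polarization read after equilibration at room temperature, with IC50 taken from serially diluted dose-response curves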
# T2 construct: purchased Eurofins, discovery 14-450
# CyclinE1/CDK2 = target: T3, CyclinE1/CDK2 (Homo sapiens, UniProt P24864); assay: Fluorescence Polarization (FP) competitive binding assay, Cyclin E1/Cdk2; settings: 10 nM Cyclin E1/Cdk2, 2 nM FAM probe; average of 2-3 independent experiments; read-out: Cyclin E FP IC50;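 further: readings taken after two-hour equilibration at room temperature in HEPES buffer with NaCl, DTT, NP-40 and BSA, IC50 fitted from eight-concentration serial dilution series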
# T3 construct: purchased Eurofins, discovery 14-475
# NCI-H1048 cells = assay: MTT proliferation assay, NCI-H1048; type: cell-based; settings: 5 days compound exposure, 1:3 serial dilution starting at 10 μM;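 further: Dose-response in 96-well plates over 8 or 10 concentration points, with exposure spanning 3-4 cell doublings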
# OVCAR3 cells = assay: MTT proliferation assay, OVCAR3; type: cell-based; settings: 5 days compound exposure, 1:3 serial dilution starting at 10 μM;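 further: compound given as an 8- or 10-point series, one day after plating, with exposure covering roughly 3-4 cell doublings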
SMILES,IC50 (CyclinA2/CDK2) [nM],IC50 (CyclinB1/CDK1) [nM],IC50 (CyclinE1/CDK2) [nM],GI50 (NCI-H1048 cells) [nM],GI50 (OVCAR3 cells) [nM]
"CC(C)C[C@@H]1NC(=O)[C@@H](N(C)C(=O)[C@@H](NC(=O)[C@@H]2C[C@@H](F)CN2C(=O)C2(C(F)(F)F)CC(F)(F)C2)C2CC2)CCCCCCCN(C)C(=O)[C@H](Cc2cc(F)ccc2C2=C[C@@H]3CC[C@H](C2)N3C(=O)C(C)C)N(C)C1=O [Example 317] ({cBuCO(3,3-F2-1-CF3)}-[Pro(trans-4-F)][Gly(cPr)][NMehhhLys(Me)]L[X124]; lactam 3-C)",30,20,250,10,10
"CC(C)C[C@@H]1NC(=O)[C@@H](N(C)C(=O)[C@@H](NC(=O)[C@@H]2C[C@@H](F)CN2C(=O)C2(C(F)(F)F)CC(F)(F)C2)C2CC2)CCCCCCCN(C)C(=O)[C@H](Cc2cc(Cl)ccc2N2CCOCC2)N(C)C1=O [Example 319] ({cBuCO(3,3-F2-1-CF3)}-[Pro(trans-4-F)][Gly(cPr)][NMehhhLys(Me)]L[X163]; lactam 3-C)",30,20,1350,10,20
"Cc1ncc(Cl)cc1C[C@H]1C(=O)N(C)CCCCCCC[C@H](N(C)C(=O)[C@@H](NC(=O)[C@@H]2C[C@@H](F)CN2C(=O)C2(C(F)(F)F)CC(F)(F)C2)C2CC2)C(=O)N[C@@H](CC(C)C)C(=O)N1C [Example 322] ({cBuCO(3,3-F2-1-CF3)}-[Pro(trans-4-F)][Gly(cPr)][NMehhhLys(Me)]L[X133]; lactam 3-C)",80,20,530,30,60
"CC(C)C[C@@H]1NC(=O)[C@@H](N(C)C(=O)[C@@H](NC(=O)[C@@H]2C[C@@H](F)CN2C(=O)C2(C(F)(F)F)CC(F)(F)C2)C2CC2)CCCCCCCN(C)C(=O)[C@H](Cc2cc(Cl)cnc2Oc2cnn(C)c2)N(C)C1=O [Example 323] ({cBuCO(3,3-F2-1-CF3)}-[Pro(trans-4-F)][Gly(cPr)][NMehhhLys(Me)]L[X159]; lactam 3-C)",30,20,240,10,10
"CC(=O)N1CC(Oc2ncc(Cl)cc2C[C@H]2C(=O)N(C)CCCCCCC[C@H](N(C)C(=O)[C@@H](NC(=O)[C@@H]3C[C@@H](F)CN3C(=O)C3(C(F)(F)F)CC(F)(F)C3)C3CC3)C(=O)N[C@@H](CC(C)C)C(=O)N2C)C1 [Example 324] ({cBuCO(3,3-F2-1-CF3)}-[Pro(trans-4-F)][Gly(cPr)][NMehhhLys(Me)]L[X190]; lactam 3-C)",60,20,520,40,80
"CC(C)C[C@@H]1NC(=O)[C@@H](N(C)C(=O)[C@@H](NC(=O)[C@@H]2C[C@@H](F)CN2C(=O)C2(C(F)(F)F)CC(F)(F)C2)C2CC2)CCCCCCCNC(=O)[C@H](Cc2cc(F)ccc2C2=C[C@@H]3COC[C@H](C2)N3C(=O)C(C)C)N(C)C1=O [Example 325] ({cBuCO(3,3-F2-1-CF3)}-[Pro(trans-4-F)][Gly(cPr)][NMe(hhhLys)]L[X205]; lactam 3-C)",20,20,300,10,10
"CC(C)C[C@@H]1NC(=O)[C@@H](N(C)C(=O)[C@@H](NC(=O)[C@@H]2C[C@@H](F)CN2C(=O)C2(C(F)(F)F)CC(F)(F)C2)C2CC2)CCCCCCCNC(=O)[C@H](Cc2cc(F)ccc2C2=C[C@H]3COC[C@@H](C2)N3C(=O)C(C)C)N(C)C1=O [Example 326] ({cBuCO(3,3-F2-1-CF3)}-[Pro(trans-4-F)][Gly(cPr)][NMe(hhhLys)]L[X126]; lactam 3-C)",20,20,150,10,10
"CC(C)C[C@@H]1NC(=O)[C@@H](N(C)C(=O)[C@@H](NC(=O)[C@@H]2C[C@@H](F)CN2C(=O)C2(C(F)(F)F)CC(F)(F)C2)C2CC2)CCCCCCCN(C)C(=O)[C@H](Cc2cc(F)ccc2C2=C[C@H]3COC[C@@H](C2)N3C(=O)C(C)C)N(C)C1=O [Example 328] ({cBuCO(3,3-F2-1-CF3)}-[Pro(trans-4-F)][Gly(cPr)][NMehhhLys(Me)]L[X126]; lactam 3-C)",20,20,210,10,10
"CC(C)C[C@@H]1NC(=O)[C@@H](N(C)C(=O)[C@@H](NC(=O)[C@@H]2C[C@@H](F)CN2C(=O)C2(C(F)(F)F)CC(F)(F)C2)C2CC2)CCCCCCCN(C)C(=O)[C@H](Cc2cc(F)ccc2C2=C[C@@H]3COC[C@H](C2)N3C(=O)C(C)C)N(C)C1=O [Example 329] ({cBuCO(3,3-F2-1-CF3)}-[Pro(trans-4-F)][Gly(cPr)][NMehhhLys(Me)]L[X205]; lactam 3-C)",20,20,250,10,10
"Cc1ncc(Cl)cc1C[C@H]1C(=O)NCCCCCCC[C@H](N(C)C(=O)[C@@H](NC(=O)[C@@H]2C[C@@H](F)CN2C(=O)C2(C(F)(F)F)CC(F)(F)C2)C2CC2)C(=O)N[C@@H](CC(C)C)C(=O)N1C [Example 331, (2S,4R)—N—((S)-2-(((3S,6S,9S)-3-((5-chloro-2-methylpyridin-3-yl)methyl)-6-isobutyl-4-methyl-2,5,8-trioxo-1,4,7-triazacyclohexadecan-9-yl)(methyl)amino)-1-cyclopropyl-2-oxoethyl)-1-(3,3-difluoro-1-(trifluoromethyl)cyclobutane-1-carbonyl)-4-fluoropyrrolidine-2-carboxamide] ({cBuCO(3,3-F2-1-CF3)}-[Pro(trans-4-F)][Gly(cPr)][NMe(hhhLys)]L[X133]; lactam 3-C)",170,20,1140,60,50
CC(C)C[C@@H]1NC(=O)[C@@H](N(C)C(=O)[C@@H](NC(=O)[C@@H]2C[C@@H](F)CN2C(=O)[C@@]2(C(F)(F)F)CCCCO2)C2CC2)CCCCCCCN(C)C(=O)[C@H](Cc2cc(Cl)cnc2Cc2cnn(C)c2)N(C)C1=O [Example 332] ({Oxane2carbonyl(2R-CF3)}-[Pro(trans-4-F)][Gly(cPr)][NMehhhLys(Me)]L[X206]; lactam 3-C),20,20,100,10,10
"CC(C)C[C@@H]1NC(=O)[C@@H](N(C)C(=O)[C@@H](NC(=O)[C@@H]2C[C@@H](F)CN2C(=O)C2(C(F)(F)F)CC(F)(F)C2)C2CC2)CCCCCCCNC(=O)[C@H](Cc2cc(Cl)ccc2-c2ccc(N3CCOCC3)cc2)N(C)C1=O [Example 333] ({cBuCO(3,3-F2-1-CF3)}-[Pro(trans-4-F)][Gly(cPr)][NMe(hhhLys)]L[NMePhe(2-(4-MorPh),5-Cl)]; lactam 3-C)",20,20,1150,10,10
"CC(C)C[C@@H]1NC(=O)[C@@H](N(C)C(=O)[C@@H](NC(=O)[C@@H]2C[C@@H](F)CN2C(=O)C2(C(F)(F)F)CC(F)(F)C2)C2CC2)CCCCCCCNC(=O)[C@H](Cc2cc(F)ccc2-c2ccc(N3CCOCC3)cc2)N(C)C1=O [Example 334] ({cBuCO(3,3-F2-1-CF3)}-[Pro(trans-4-F)][Gly(cPr)][NMe(hhhLys)]L[X87]; lactam 3-C)",20,20,190,10,10
"CC(C)C[C@@H]1NC(=O)[C@@H](N(C)C(=O)[C@@H](NC(=O)[C@@H]2C[C@@H](F)CN2C(=O)C2(C(F)(F)F)CC(F)(F)C2)C2CC2)CCCCCCCN(C)C(=O)[C@H](Cc2cc(Cl)ccc2-c2ccc3c(c2)OCCN3C)N(C)C1=O [Example 342] ({cBuCO(3,3-F2-1-CF3)}-[Pro(trans-4-F)][Gly(cPr)][NMehhhLys(Me)]L[X136]; lactam 3-C)",20,20,590,10,10
"CC(C)C[C@@H]1NC(=O)[C@@H](N(C)C(=O)[C@@H](NC(=O)[C@@H]2CC(F)(F)CN2C(=O)C2(C(F)(F)F)CC(F)(F)C2)C2CC2)CCCCCCCN(C)C(=O)[C@H](Cc2cc(Cl)ccc2-c2cnn(C)c2)N(C)C1=O [Example 343] ({cBuCO(3,3-F2-1-CF3)}-[Pro(4,4-F2)][Gly(cPr)][NMehhhLys(Me)]L[X22]; lactam 3-C)",20,20,670,10,10
"Cc1cc(-c2ccc(Cl)cc2C[C@H]2C(=O)N(C)CCCCCCC[C@H](N(C)C(=O)[C@@H](NC(=O)[C@@H]3C[C@@H](F)CN3C(=O)C3(C(F)(F)F)CC(F)(F)C3)C3CC3)C(=O)N[C@@H](CC(C)C)C(=O)N2C)ccc1N1CCOCC1 [Example 344] ({cBuCO(3,3-F2-1-CF3)}-[Pro(trans-4-F)][Gly(cPr)][NMehhhLys(Me)]L[X175]; lactam 3-C)",20,20,1270,10,20
"CC(C)C[C@@H]1NC(=O)[C@@H](N(C)C(=O)[C@@H](NC(=O)[C@@H]2C[C@@H](F)CN2C(=O)C2(C(F)(F)F)CC(F)(F)C2)C2CC2)CCCCCCCN(C)C(=O)[C@H](Cc2cc(Cl)ccc2-c2ccc(N3CCOCC3)c(Cl)c2)N(C)C1=O [Example 345] ({cBuCO(3,3-F2-1-CF3)}-[Pro(trans-4-F)][Gly(cPr)][NMehhhLys(Me)]L[X165]; lactam 3-C)",30,20,3050,20,40
